Test results taken from patent US20080076760A1, “2,3,4,5-TETRAHYDRO-1H-1,5-BENZODIAZEPINE DERIVATIVE AND MEDICINAL COMPOSITION” (priority 2004, published 2008).

Key:
[1] = molecular target: human vasopressin V1a receptor (Homo sapiens, UniProt P37288); assay: Receptor binding study, [3H]AVP displacement on CHO cell membranes, human V1a; conditions: [3H]AVP displacement, CHO cell membrane, 25° C., one hour; read-out: Human V1a Ki
Protocol: (§1) (ii) Receptor Binding Study
(§2) Assay was performed using 50 mM of Tris-HCl (pH=7.4) (total amount: 250 μL) (buffer composition: containing […] of MgCl2 and 0.1% BSA), and incubation was performed at room temperature (25° C.) for one hour. After incubation, suck filtration was immediately performed and reaction was completed when the membrane sample was collected on a glass fiber filter fitted with the microplate. After the filter was washed with an ice-cold Tris-HCl buffer (50 mM Tris-HCl, 10 mM MgCl2, pH 7.4), radioactivity measurement was performed. Nonspecific binding was determined using nonradioactive-labeled AVP (1 μM).

[2] = molecular target: human vasopressin V2 receptor (Homo sapiens, UniProt P30518); assay: Receptor binding study, [3H]AVP displacement on CHO cell membranes, human V2; conditions: [3H]AVP displacement, CHO cell membrane, 25° C., one hour; read-out: Human V2 Ki
Sequence of human vasopressin V2 receptor (P30518 whole entry): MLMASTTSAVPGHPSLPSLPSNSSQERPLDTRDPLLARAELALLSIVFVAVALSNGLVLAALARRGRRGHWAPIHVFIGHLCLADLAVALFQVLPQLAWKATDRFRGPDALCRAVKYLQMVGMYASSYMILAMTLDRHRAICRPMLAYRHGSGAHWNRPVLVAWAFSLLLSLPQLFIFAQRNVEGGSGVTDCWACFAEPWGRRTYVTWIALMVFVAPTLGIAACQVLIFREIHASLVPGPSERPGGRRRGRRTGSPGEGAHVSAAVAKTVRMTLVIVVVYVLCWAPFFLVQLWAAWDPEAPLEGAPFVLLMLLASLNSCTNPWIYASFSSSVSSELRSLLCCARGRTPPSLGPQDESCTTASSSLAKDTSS
Protocol: Preparation of Chinese hamster ovary (Cho) cell which expresses human vasopressin receptor subtype and production of membrane sample of the cell was conducted according to the method of Tahara et al. (Br. J. Pharmacol., 125, 1463-1470, 1998).
as §1
as §2, with “In saturation binding experiment, the membrane sample and [^3H]AVP of several concentrations (0.125 nM to 4.0 nM) were mixed and incubated in microplate wells. In displacement experiment, [^3H]AVP of constant concentrations (0.5 nM to 1.0 nM) and the membrane sample were mixed with Compound A of several concentrations, and incubation was performed. Assay” for “Assay”

Sequence of human vasopressin V1a receptor (P37288 whole entry): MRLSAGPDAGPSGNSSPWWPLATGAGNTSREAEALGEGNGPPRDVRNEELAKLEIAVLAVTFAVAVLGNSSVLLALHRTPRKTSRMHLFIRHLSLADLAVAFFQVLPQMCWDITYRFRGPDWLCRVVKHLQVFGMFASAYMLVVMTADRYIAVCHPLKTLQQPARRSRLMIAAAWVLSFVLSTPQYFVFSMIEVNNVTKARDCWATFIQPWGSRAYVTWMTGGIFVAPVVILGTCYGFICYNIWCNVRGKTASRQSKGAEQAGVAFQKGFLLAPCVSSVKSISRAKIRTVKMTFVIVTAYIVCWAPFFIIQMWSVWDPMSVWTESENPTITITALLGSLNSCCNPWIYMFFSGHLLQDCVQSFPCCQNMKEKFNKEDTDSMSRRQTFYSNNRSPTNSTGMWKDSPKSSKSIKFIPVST

SMILES	Ki [1] [nM]	Ki [2] [nM]
CNCCCOc1cc(C(=O)N2CC[C@H](C)Nc3ccccc32)ccc1-c1ccc2[nH]ccc2c1 [Example 51, N-[3-[2-(1H-indol-5-yl)-5-[[(4S)-4-methyl-2,3,4,5-tetrahydro-1H-1,5-benzodiazepin-1-yl]carbonyl]phenoxy]propyl]-N-methylamine]	0.079	12
CC1CCN(C(=O)c2ccc(-c3ccc4[nH]ccc4c3)c(OCCCCCN)c2)c2ccccc2N1 (stereo not drawn) [Example 37, 5-[2-(1H-indol-5-yl)-5-[(4-methyl-2,3,4,5-tetrahydro-1H-1,5-benzodiazepin-1-yl)carbonyl]phenoxy]-1-pentaneamine]	0.24	4.3
CC1CCN(C(=O)c2ccc(-c3ccc4[nH]ccc4c3)c(OCCN3CCOCC3)c2)c2ccccc2N1 (stereo not drawn) [Example 46, 2-(1H-indol-5-yl)-5-[(4-methyl-2,3,4,5-tetrahydro-1H-1,5-benzodiazepin-1-yl)carbonyl]phenyl 2-(4-morpholinyl)ethyl ether]	0.24	1.1
CCCN1CCN(CCCOc2cc(C(=O)N3CC[C@H](C)Nc4ccccc43)ccc2-c2ccc3[nH]ccc3c2)CC1 [Example 113, (4S)-1-[4-(1H-indol-5-yl)-3-[3-(4-propyl-1-piperazinyl)propoxy]benzoyl]-4-methyl-2,3,4,5-tetrahydro-1H-1,5-benzodiazepine]	0.26	5
C[C@H]1CCN(C(=O)c2ccc(-c3ccc4[nH]ccc4c3)c(N3CCOCC3)c2)c2ccccc2N1 [Example 134, (4S)-1-[4-(1H-indol-5-yl)-3-(4-morpholinyl)benzoyl]-4-methyl-2,3,4,5-tetrahydro-1H-1,5-benzodiazepine]	0.49	2.7
CC(=O)N1CCN(CCCOc2cc(C(=O)N3CC[C@H](C)Nc4ccccc43)ccc2-c2ccc3[nH]ccc3c2)CC1 [Example 73, (4S)-1-[3-[3-(4-acetyl-1-piperazinyl)propoxy]-4-(1H-indol-5-yl)]-4-methyl-2,3,4,5-tetrahydro-1H-1,5-benzodiazepine]	0.19	4.6
CCCCN(C)CCCCOc1cc(C(=O)N2CC[C@H](C)Nc3ccccc32)ccc1-c1ccc2[nH]ccc2c1 [Example 173, N-butyl-4-[2-(1H-indol-5-yl)-5-[[(4S)-4-methyl-2,3,4,5-tetrahydro-1H-1,5-benzodiazepin-1-yl]carbonyl]phenoxy]-N-methyl-1-butaneamine]	0.21	10
C[C@H]1CCN(C(=O)c2ccc(-c3ccc4[nH]ccc4c3)c(NS(C)(=O)=O)c2)c2ccccc2N1 [Example 48, N-[2-(1H-indol-5-yl)-5-[[(4S)-4-methyl-2,3,4,5-tetrahydro-1H-1,5-benzodiazepin-1-yl]carbonyl]phenyl]methanesulfonamide]	0.23	1.5
CCCNCCCOc1cc(C(=O)N2CC[C@H](C)Nc3ccccc32)ccc1-c1ccc(NCC)cc1 [Example 165, N-ethyl-4′-[[(4S)-4-methyl-2,3,4,5-tetrahydro-1H-1,5-benzodiazepin-1-yl]carbonyl]-2′-[3-(propylamino)propoxy][1,1′-biphenyl]-4-amine]	0.28	92
C[C@H]1CCN(C(=O)c2ccc(-c3ccc4[nH]ccc4c3)c(OCCCN3CCOCC3)c2)c2ccccc2N1 [Example 61, (4S)-1-[4-(1H-indol-5-yl)-3-[3-(4-morpholinyl)propoxy]benzoyl]-4-methyl-2,3,4,5-tetrahydro-1H-1,5-benzodiazepine]	0.22	1.9
C[C@@H]1CCN(C(=O)c2ccc(-c3ccc4[nH]ccc4c3)c(OCCN3CCOCC3)c2)c2ccccc2N1 [Example 66, (4R)-1-[4-(1H-indol-5-yl)-3-[2-(4-morpholinyl)ethoxy]benzoyl]-4-methyl-2,3,4,5-tetrahydro-1H-1,5-benzodiazepine]	0.41	3.6
CCCN1CCN(CCCOc2cc(C(=O)N3CC[C@H](C)Nc4ccccc43)ccc2-c2ccc(NCC)cc2)CC1 [Example 159, N-ethyl-4′-[[(4S)-4-methyl-2,3-4,5-tetrahydro-1H-1,5-benzodiazepin-1-yl]carbonyl]-2′-[3-(4-propyl-1-piperazinyl)propoxy][1,1′-biphenyl]-4-amine]	0.18	11
C[C@H]1CCN(C(=O)c2ccc(-c3ccc4[nH]ccc4c3)c(C(=O)CCCCN(C)C)c2)c2ccccc2N1 [Example 158, 5-(dimethylamino)-1-[2-(1H-indol-5-yl)-5-[[(4S)-4-methyl-2,3,4,5-tetrahydro-1H-1,5-benzodiazepin-1-yl]carbonyl]phenyl]-1-pentanone]	0.11	13

Continued by falling Ki [1], values first:

Ki [1] [nM]	Ki [2] [nM]	SMILES
0.46	3.2	C[C@H]1CCN(C(=O)c2ccc(-c3ccc4[nH]ccc4c3)c(OCCCN3C(=O)CSC3=O)c2)c2ccccc2N1 [Example 100, 3-[3-[2-(1H-indol-5-yl)-5-[[(4S)-4-methyl-2,3,4,5-tetrahydro-1H-1,5-benzodiazepin-1-yl]carbonyl]phenoxy]propyl]-1,3-thiazolidine-2,4-dione]
0.4	53	CCCN(C)CCCOc1cc(C(=O)N2CC[C@H](C)Nc3ccccc32)ccc1-c1ccc(NCC)c(F)c1 [Example 154, N-ethyl-3-fluoro-2′-[3-[methyl(propyl)amino]propoxy]-4′-[[(4S)-4-methyl-2,3-4,5-tetrahydro-1H-1,5-benzodiazepin-1-yl]carbonyl][1,1′-biphenyl]-4-amine]
0.39	1.2	COc1cc(C(=O)N2CC[C@H](C)Nc3ccccc32)ccc1-c1ccc2[nH]ccc2c1 [Example 47, (4S)-1-[4-(1H-indol-5-yl)-3-methoxybenzoyl]-4-methyl-2,3,4,5-tetrahydro-1H-1,5-benzodiazepine]
0.35	11	CCCCCN(C)CCCCOc1cc(C(=O)N2CC[C@H](C)Nc3ccccc32)ccc1-c1ccc2[nH]ccc2c1 [Example 174, N-[4-[2-(1H-indol-5-yl)-5-[[(4S)-4-methyl-2,3,4,5-tetrahydro-1H-1,5-benzodiazepin-1-yl]carbonyl]phenoxy]butyl]-N-methyl-1-pentaneamine]
0.27	84	C[C@H]1CCN(C(=O)c2ccc(-c3ccc(N)cc3)c(OCCN3CCOCC3)c2)c2ccccc2N1 [Example 60, 4′-[[(4S)-4-methyl-2,3,4,5-tetrahydro-1H-1,5-benzodiazepin-1-yl]carbonyl]-2′-[2-(4-morpholinyl)ethoxy][1,1′-biphenyl]-4-amine]
0.23	0.89	C[C@H]1CCN(C(=O)c2ccc(-c3ccc4[nH]ccc4c3)c(OCCN3CCOCC3)c2)c2ccccc2N1 [Example 59, (4S)-1-[4-(1H-indol-5-yl)-3-[2-(4-morpholinyl)ethoxy]benzoyl]-4-methyl-2,3,4,5-tetrahydro-1H-1,5-benzodiazepine]
0.21	77	CCCN(C)CCCOc1cc(C(=O)N2CC[C@@H](C)Nc3ccccc32)ccc1-c1ccc2[nH]ccc2c1 [Example 127, N-[3-[2-(1H-indol-5-yl)-5-[[(4R)-4-methyl-2,3,4,5-tetrahydro-1H-1,5-benzodiazepin-1-yl)carbonyl]phenoxy]propyl]-N-methyl-N-propylamine]
0.2	22	CCCN1CCN(CCOc2cc(C(=O)N3CC[C@H](C)Nc4ccccc43)ccc2-c2ccc(NCC)cc2)CC1 [Example 160, N-ethyl-4′-[[(4S)-4-methyl-2,3-4,5-tetrahydro-1H-1,5-benzodiazepin-1-yl]carbonyl]-2′-[2-(4-propyl-1-piperazinyl)ethoxy][1,1′-biphenyl]-4-amine]
0.19	34	CC1CCN(C(=O)c2ccc(-c3ccc4[nH]ccc4c3)c(OCCCN(C)C)c2)c2ccccc2N1 (stereo not drawn) [Example 42, 3-[2-(1H-indol-5-yl)-5-[(4-methyl-2,3,4,5-tetrahydro-1H-1,5-benzodiazepin-1-yl)carbonyl]phenoxy]-N,N-dimethyl-1-propaneamine]
0.16	15	CCC1CCN(C(=O)c2ccc(-c3ccc4[nH]ccc4c3)c(NC(C)=O)c2)c2ccccc2N1 (stereo not drawn) [Example 8, N-[5-[(4-ethyl-2,3,4,5-tetrahydro-1H-1,5-benzodiazepin-1-yl)carbonyl]-2-(1H-indol-5-yl)-phenyl]acetamide]
0.086	8.7	C[C@H]1CCN(C(=O)c2ccc(-c3ccc4[nH]ccc4c3)c(OCCCN3CCC(NC=O)CC3)c2)c2ccccc2N1 [Example 87, 1-[3-[2-(1H-indol-5-yl)-5-[[(4S)-4-methyl-2,3,4,5-tetrahydro-1H-1,5-benzodiazepin-1-yl]carbonyl]phenoxy]propyl]-4-piperidinylformamide]
